The source of these data is patent publication US11065209B2, “Use of cannabidiol in the treatment of epilepsy” (GW Research Limited, priority 2015, dated 2021).

Data set [1] is described as follows: Solubility of the drug substance in water. The format is physicochemical. The source says:
The drug substance, CBD is insoluble in water. Sesame oil was selected as an excipient to solubilize the drug substance.

Data set [2] has as its system seizures in mice. As to conditions: after pro-convulsant drugs or an electric current; cited from earlier work.
Data set [3] concerns seizures in institutionalized adult patients. As to conditions: 200 mg/day of pure CBD; twelve institutionalized adult patients; open label; cited from earlier work.
In data set [4] the test system is seizures in adult patients with generalized epilepsy. Particulars: eight adult patients with generalized epilepsy; cited from earlier work.
In data set [5] the test system is seizures in adult patients. As to conditions: 200 mg/day of pure CBD; four adult patients; cited from earlier work.
Data set [6] has as its system seizures in patients with Tuberous Sclerosis Complex (TSC). As to the kind of experiment: Expanded access compassionate use program: CBD added to baseline AED in children and young adults with treatment-resistant Tuberous Sclerosis Complex, seizure diaries. The format is in vivo, human. How it is done: The terms “50% responder” and “50% reduction in seizure” are both terms used in clinical studies. In the present application the terms define the percentage of subjects that experienced a greater than or equal to 50% reduction in the total number of seizures during treatment with CBD in comparison to the number experienced during the baseline period before the CBD was administered.
These subjects were tested with a highly purified extract of cannabidiol (CBD) obtained from a cannabis plant. The participants in the study were part of an expanded access compassionate use program for CBD.
All of these patients diagnosed with TSC presented with one or more types of seizure including tonic, tonic-clonic, atonic, absence, focal seizures with impairment and focal seizures which evolve to secondary generalised seizures.
All patients entered a baseline period of 4 weeks when parents/caregivers kept prospective seizure diaries, noting all countable seizure types.
The patients then received a highly purified CBD extract (greater than 98% CBD w/w) in sesame oil, of known and constant composition, at a dose of 5 mg/kg/day in addition to their baseline anti-epileptic drug (AED) regimen.
Laboratory testing for hematologic, liver, kidney function, and concomitant AED levels was performed at baseline, and after CBD therapy.
All patients were taking at least two concomitant anti-epileptic drugs. These included clobazam; diazepam; lacosamide; lamotrigine; levetiracetam; lorazepam; nordiazepam; n-desmethylclobazam; phenytoin; valproic acid; zonisamide. The average number of concomitant antiepileptic drugs being taken was 2.7. The majority took either clobazam and/or valproic acid.
There were 12 children and young adult patients who received at least 3 months of treatment all of whom suffered from treatment-resistant epilepsy with a diagnosis of Tuberous Sclerosis Complex (TSC).

Data set [7] concerns seizures in a child with Lennox-Gastaut syndrome. As to conditions: CBD in an oily solution; cited from earlier work.
Data set [8] concerns seizures. Particulars: as described in the literature; cited from earlier work.
Setting [9] is: share of patients, n = 2, after 12 weeks of treatment.
Where [10] appears, read: share of patients, n = 3, after 12 weeks of treatment.
The mark [11] stands for this setting: share of patients, n = 5, after 12 weeks of treatment.
Setting [12] is: share of patients, n = 10, after 12 weeks of treatment.
The mark [13] stands for this setting: share of patients, n = 14, after 12 weeks of treatment.

Molecules are shown by their SMILES. Several values for one entry are separate records, joined by “and”; a condition that tells them apart may be missing. Equal values may be shown once. Entries after “also recorded” stand apart in the source; their conditions may differ.

On to `C=C(C)[C@@H]1CCC(C)=C[C@H]1c1c(O)cc(CCCCC)cc1O` [CBD, cannabidiol], for which the solubility in water result in data set [1] was “insoluble”. For the same compound, in data set [2], the prevention of seizures entry is reported as “able to prevent seizures”. For the same compound, the controlling seizures entry in data set [3] was “ineffective”. Besides, the “patients with a marked reduction of seizures” value in data set [4] is 4. In data set [5], the “patients who became seizure free” value is “two of the four”. Besides, the “patients with at least a fifty percent reduction in the total number of seizures” value in data set [6] (TSC patients resistant to existing AED) is reported as “half of the patients”. Moreover, the “patients treated in whom total seizure frequency was reduced” value in data set [6] (TSC patients, 12 treated) is “over 80%”. Moreover, in data set [6] (TSC patients, result in words), the “effect on incidence of generalised seizure types tonic, atonic, tonic-clonic and absence seizures” value was “dramatically reduce; also recorded: virtually eliminate”; the “effect on the number of focal seizures with impairment” value is reported as “markedly reduced”. Besides, in data set [6] (after 3 months of therapy, 12 patients), the “TSC patients with a decrease in total seizure frequency” value is reported as “ten out of 12”. Moreover, in data set [6] (individual TSC subjects 1-12, after 12 weeks treatment), the “>50% reduction in seizures (total number of seizures)” value was “Yes (6×) and No (6×)”. Moreover, the “Change in baseline (%) for total number of seizures” value in data set [6] (individual TSC subjects 1-12, after 12 weeks treatment, CBD 5 up to 25 mg/kg/day added to AED) is −93.7% and −15.0% and −71.0% and −33.5% and −80.2% and 0.4% and −100.0% and −9.8% and −74.4% and 108.0% and −39.2% and −63.2%. In data set [6] (over the 12 weeks of treatment, 12 patients), the “TSC patients with a greater than 50% reduction in total seizures” value is “six of the 12”. Besides, the “effect on the number of seizures” value in data set [6] (patients that do not respond well to existing AED, result in words) is “significantly reduces”. Besides, in data set [6] (setting [9]), the “<50% reduction in seizures, absence seizures” value amounted to 0%; the “<50% reduction in seizures, focal seizures evolving to secondary generalisation” value was found to be 50%; the “<50% reduction in seizures, tonic-clonic seizures” value was determined as 0%; the “>50% reduction in seizures, absence seizures” value is on record as 100%. Besides, in data set [6] (setting [9]), the “>50% reduction in seizures, focal seizures evolving to secondary generalisation” value stood at 50% and the “>50% reduction in seizures, tonic-clonic seizures” value worked out at 100%. In addition, in data set [6] (setting [10]), the “<50% reduction in seizures, atonic seizures” value is reported as 0% and the “>50% reduction in seizures, atonic seizures” value came out at 100%. Moreover, in data set [6] (setting [11]), the “<50% reduction in seizures, tonic seizures” value was 25% and the “>50% reduction in seizures, tonic seizures” value is on record as 75%. Further, in data set [6] (setting [12]), the “<50% reduction in seizures, focal seizures with impairment” value is recorded as 45% and the “>50% reduction in seizures, focal seizures with impairment” value turned out to be 55%. Moreover, in data set [6] (setting [13]), the “<50% reduction in seizures, total focal seizures” value stood at 55% and the “>50% reduction in seizures, total focal seizures” value turned out to be 45%. Besides, the “average reduction in the total number of seizures in the responders” value in data set [6] (the patients with at least 50% reduction, 12 weeks of treatment) was 80.4% and 80%. Further, the seizure frequency result in data set [7] is recorded as “improvement”.

As to `CCCCCc1cc(O)c2c(c1)OC(C)(C)[C@@H]1CCC(C)=C[C@@H]21` [THC, tetrahydrocannabinol], the effect on seizures entry in data set [8] was “pro-convulsant”.
